Assay results from patent publication US20160280699A1, “SUBSTITUTED PHENYLALANINE DERIVATIVES” (BAYER PHARMA AKTIENGESELLSCHAFT, priority 2013, published 2016).
Counter-ions that a name gives are not always drawn.

Key:
human factor XIa = target: T1, human factor XIa (Homo sapiens, UniProt P03951); test: Measurement of FXIa inhibition (fluorogenic peptide substrate Boc-Glu(OBzl)-Ala-Arg-AMC); format: biochemical; conditions: factor XIa from Kordia, 15 min preincubation, 30 min at 22° C., fluorescence
T1 construct: purchased Kordia
T1 sequence (P03951 388-625 limits assumed): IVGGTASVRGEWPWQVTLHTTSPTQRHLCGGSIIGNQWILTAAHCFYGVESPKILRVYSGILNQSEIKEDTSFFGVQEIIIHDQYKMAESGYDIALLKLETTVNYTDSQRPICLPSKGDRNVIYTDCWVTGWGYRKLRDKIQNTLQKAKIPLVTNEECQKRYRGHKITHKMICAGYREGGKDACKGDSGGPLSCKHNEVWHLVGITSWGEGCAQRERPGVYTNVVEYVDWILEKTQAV
T1 sequence (P03951 19-387 partner limits assumed): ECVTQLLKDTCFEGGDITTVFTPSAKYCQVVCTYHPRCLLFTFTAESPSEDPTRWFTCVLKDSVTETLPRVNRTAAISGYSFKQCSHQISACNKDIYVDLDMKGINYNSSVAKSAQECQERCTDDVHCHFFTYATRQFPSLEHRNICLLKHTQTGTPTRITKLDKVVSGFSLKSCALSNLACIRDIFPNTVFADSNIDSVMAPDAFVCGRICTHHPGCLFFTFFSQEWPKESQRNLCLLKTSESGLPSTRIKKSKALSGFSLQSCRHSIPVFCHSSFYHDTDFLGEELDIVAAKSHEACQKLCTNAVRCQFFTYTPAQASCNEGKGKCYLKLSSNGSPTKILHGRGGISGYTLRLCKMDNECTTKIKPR
Description: The factor XIa inhibition of the substances according to the invention is determined using a biochemical test system which utilizes the reaction of a peptidic factor XIa substrate to determine the enzymatic activity of human factor XIa. Here, factor XIa cleaves from the peptic factor XIa substrate the C-terminal aminomethylcoumarin (AMC), the fluorescence of which is measured. The determinations are carried out in microtitre plates.
Test substances are dissolved in dimethyl sulphoxide and serially diluted in dimethyl sulphoxide (3000 μM to 0.0078 μM; resulting final concentrations in the test: 50 μM to 0.00013 μM). In each case 1 μl of the diluted substance solutions is placed into the wells of white microtitre plates from Greiner (384 wells). Subsequently, the following are added successively: 20 μl of assay buffer (50 mmol/l Tris buffer pH 7.4; 100 mmol/l sodium chloride; 5 mmol/l calcium chloride; 0.1% bovine serum albumin) and 20 μl of factor XIa from Kordia (0.45 nM in assay buffer). After 15 min of incubation, the enzyme reaction is started by addition of 20 μl of the factor XIa substrate Boc-Glu(OBzl)-Ala-Arg-AMC dissolved in assay buffer (10 μM in assay buffer) from Bachem, the mixture is incubated at room temperature (22° C.) for 30 min and fluorescence is then measured (excitation: 360 nm, emission: 460 nm). The measured emissions of the test batches with test substance are compared to those of control batches without test substance (only dimethyl sulphoxide instead of test substance in dimethyl sulphoxide), and IC50 values are calculated from the concentration/activity relationships.

human and animal plasma = test: Determination of anticoagulatory activity: activated partial thromboplastin time (aPTT) in plasma; format: biochemical; conditions: concentration of test substance which brings about a 1.5-fold extension of the aPTT, 37° C., C.K. Prest kit
Description: The anticoagulatory activity of the test substances is determined in vitro in human and animal plasma (for example mouse, rat, rabbit, pig and dog plasma). To this end, blood is drawn off in a mixing ratio of sodium citrate/blood of 1:9 using a 0.11 molar sodium citrate solution as receiver. Immediately after the blood has been drawn off, it is mixed thoroughly and centrifuged at about 4000 g for 15 minutes. The supernatant is pipetted off.
The activated partial thromboplastin time (aPTT) is determined in the presence of varying concentrations of test substance or the corresponding solvent using a commercial test kit (C.K. Prest from Diagnostica Stago). The test compounds are incubated with the plasma and the PTT reagent (cephalin, kaolin) at 37° C. for 3 minutes. Coagulation is then started by addition of a 25 mM aqueous calcium chloride solution, and the time when coagulation occurs is determined. The concentration of test substance which brings about a 1.5-fold extension of the aPTT is determined Activity data from this test are listed in Table B below: […]

`CS(=O)(=O)c1cncc(-c2ccc(C[C@H](NC(=O)[C@H]3CC[C@H](CN)CC3)C(=O)Nc3ccc(-c4nn[nH]n4)cc3)cc2)c1` [Example 39, N-alpha-{[trans-4-(Aminomethyl)cyclohexyl]carbonyl}-4-[5-(methylsulphonyl)pyridin-3-yl]-N-[4-(2H-tetrazol-5-yl)phenyl]-L-phenylalaninamide hydrochloride] was tested, and the IC50 (human factor XIa) was 15 nM and the “aPTT” value (human and animal plasma) was 0.38 µmol/L.

For `NC[C@H]1CC[C@H](C(=O)N[C@@H](Cc2ccc(-c3cnc(N4CCCCC4)nc3O)cc2)C(=O)Nc2ccc(-c3nn[nH]n3)cc2)CC1` [Example 40, N-alpha-{[trans-4-(Aminomethyl)cyclohexyl]carbonyl}-4-[4-hydroxy-2-(piperidin-1-yl)pyrimidin-5-yl]-N-[4-(2H-tetrazol-5-yl)phenyl]-L-phenylalaninamide hydrochloride], the IC50 (human factor XIa) was 2.6 nM and the “aPTT” value (human and animal plasma) was 0.08 µmol/L.

With `Cc1cc(N2CCNCC2)ncc1-c1ccc(C[C@H](NC(=O)[C@H]2CC[C@H](CN)CC2)C(=O)Nc2ccc(-c3nn[nH]n3)cc2)cc1` [Example 41, N-alpha-{[trans-4-(Aminomethyl)cyclohexyl]carbonyl}-4-[4-methyl-6-(piperazin-1-yl)pyridin-3-yl]-N-[4-(2H-tetrazol-5-yl)phenyl]-L-phenylalaninamide hydrochloride] the IC50 (human factor XIa) was 3.2 nM and the “aPTT” value (human and animal plasma) was 0.06 µmol/L.

In the case of `NC[C@H]1CC[C@H](C(=O)N[C@@H](Cc2ccc(-c3ccnc(N4CCOCC4)c3Cl)cc2)C(=O)Nc2ccc(-c3nn[nH]n3)cc2)CC1` [Example 43, N-alpha-{[trans-4-(Aminomethyl)cyclohexyl]carbonyl}-4-[3-chloro-2-(morpholin-4-yl)pyridin-4-yl]-N-[4-(2H-tetrazol-5-yl)phenyl]-L-phenylalaninamide hydrochloride], the IC50 (human factor XIa) is reported as 1.8 nM and the “aPTT” value (human and animal plasma) is reported as 0.37 µmol/L.

In the case of `NC[C@H]1CC[C@H](C(=O)N[C@@H](Cc2ccc(-c3ccc(N4CCOCC4)nc3)c(F)c2)C(=O)Nc2ccc(-c3nn[nH]n3)cc2)CC1` [Example 44, N-alpha-{[trans-4-(Aminomethyl)cyclohexyl]carbonyl}-3-fluoro-4-[6-(morpholin-4-yl)pyridin-3-yl]-N-[4-(2H-tetrazol-5-yl)phenyl]-L-phenylalaninamide hydrochloride], the IC50 (human factor XIa) is reported as 2 nM and the “aPTT” value (human and animal plasma) is reported as 0.22 µmol/L.

`CN(C)CCCOc1ccc(-c2ccc(C[C@H](NC(=O)[C@H]3CC[C@H](CN)CC3)C(=O)Nc3ccc(-c4nn[nH]n4)cc3)cc2F)cn1` [Example 45, N-alpha-{[trans-4-(Aminomethyl)cyclohexyl]carbonyl}-4-{6-[3-(dimethylamino)propoxy]pyridin-3-yl}-3-fluoro-N-[4-(2H-tetrazol-5-yl)phenyl]-L-phenylalaninamide hydrochloride] was tested, and the IC50 (human factor XIa) was 13 nM and the “aPTT” value (human and animal plasma) was 0.35 µmol/L.

In the case of `NC[C@H]1CC[C@H](C(=O)N[C@@H](Cc2ccc(-c3ccnc(N4CCOCC4)c3F)cc2)C(=O)Nc2ccc(-c3nn[nH]n3)cc2)CC1` [Example 46, N-alpha-{[trans-4-(Aminomethyl)cyclohexyl]carbonyl}-4-[3-fluoro-2-(morpholin-4-yl)pyridin-4-yl]-N-[4-(2H-tetrazol-5-yl)phenyl]-L-phenylalaninamide hydrochloride], the IC50 (human factor XIa) is reported as 3.7 nM and the “aPTT” value (human and animal plasma) is reported as 0.45 µmol/L.

With `Cc1cc(N2CCNCC2)ncc1-c1ccc(C[C@H](NC(=O)[C@H]2CC[C@H](CN)CC2)C(=O)Nc2ccc(-c3nn[nH]n3)c(F)c2)cc1` [Example 47, N-alpha-{[trans-4-(Aminomethyl)cyclohexyl]carbonyl}-N-[3-fluoro-4-(2H-tetrazol-5-yl)phenyl]-4-[4-methyl-6-(piperazin-1-yl)pyridin-3-yl]-L-phenylalaninamide hydrochloride] the IC50 (human factor XIa) was 1.1 nM and the “aPTT” value (human and animal plasma) was 0.08 µmol/L.

`Cc1cc(N2CCNCC2)ncc1-c1ccc(C[C@H](NC(=O)[C@H]2CC[C@H](CN)CC2)C(=O)Nc2ccc(-c3nnc(Cl)[nH]3)cc2)cc1` [Example 48, N-alpha-{[trans-4-(Aminomethyl)cyclohexyl]carbonyl}-N-[4-(3-chloro-4H-1,2,4-triazol-5-yl)phenyl]-4-[4-methyl-6-(piperazin-1-yl)pyridin-3-yl]-L-phenylalaninamide hydrochloride] was tested, and the IC50 (human factor XIa) was 3.5 nM and the “aPTT” value (human and animal plasma) was 0.11 µmol/L.

With `NC[C@H]1CC[C@H](C(=O)N[C@@H](Cc2ccc(-c3cncc(N)c3)cc2)C(=O)Nc2ccc(-c3nnn[nH]3)cc2)CC1` [Example 49, N-alpha-{[trans-4-(Aminomethyl)cyclohexyl]carbonyl}-4-(5-aminopyridin-3-yl)-N-[4-(1H-tetrazol-5-yl)phenyl]-L-phenylalaninamide hydrochloride] the IC50 (human factor XIa) was 3.2 nM and the “aPTT” value (human and animal plasma) was 0.14 µmol/L.

`NC[C@H]1CC[C@H](C(=O)N[C@@H](Cc2ccc(-c3cccnc3C(F)(F)F)cc2)C(=O)Nc2ccc(-c3nnn[nH]3)cc2)CC1` [Example 50, N-alpha-{[trans-4-(Aminomethyl)cyclohexyl]carbonyl}-N-[4-(1H-tetrazol-5-yl)phenyl]-4-[2-(trifluoromethyl)pyridin-3-yl]-L-phenylalaninamide hydrochloride] was tested, and the IC50 (human factor XIa) was 1.3 nM and the “aPTT” value (human and animal plasma) was 0.16 µmol/L.

With `Cc1nc(N)ccc1-c1ccc(C[C@H](NC(=O)[C@H]2CC[C@H](CN)CC2)C(=O)Nc2ccc(-c3nnn[nH]3)cc2)cc1` [Example 51, N-alpha-{[trans-4-(Aminomethyl)cyclohexyl]carbonyl}-4-(6-amino-2-methylpyridin-3-yl)-N-[4-(1H-tetrazol-5-yl)phenyl]-L-phenylalaninamide hydrochloride] the IC50 (human factor XIa) was 3.7 nM and the “aPTT” value (human and animal plasma) was 0.19 µmol/L.

`NC[C@H]1CC[C@H](C(=O)N[C@@H](Cc2ccc(-c3cncc(S(=O)(=O)NC4CCNCC4)c3)cc2)C(=O)Nc2ccc(-c3nnn[nH]3)cc2)CC1` [Example 52, N-alpha-{[trans-4-(Aminomethyl)cyclohexyl]carbonyl}-4-[5-(piperidin-4-ylsulphamoyl)pyridin-3-yl]-N-[4-(1H-tetrazol-5-yl)phenyl]-L-phenylalaninamide hydrochloride] was tested, and the IC50 (human factor XIa) was 6.9 nM and the “aPTT” value (human and animal plasma) was 0.21 µmol/L.

With `CN1CCN(c2cc(-c3ccc(C[C@H](NC(=O)C4CCC(CN)CC4)C(=O)Nc4ccc(-c5nnn[nH]5)cc4)cc3)ccn2)CC1` (stereo partly drawn) [Example 53, N-alpha-{[trans-4-(Aminomethyl)cyclohexyl]carbonyl}-4-[2-(4-methylpiperazin-1-yl)pyridin-4-yl]-N-[4-(1H-tetrazol-5-yl)phenyl]-L-phenylalaninamide hydrochloride] the IC50 (human factor XIa) was 11 nM and the “aPTT” value (human and animal plasma) was 0.21 µmol/L.

For `CN1CCN(c2ccc(-c3ccc(C[C@H](NC(=O)C4CCC(CN)CC4)C(=O)Nc4ccc(-c5nnn[nH]5)cc4)cc3)cn2)CC1` (stereo partly drawn) [Example 54, N-alpha-{[trans-4-(Aminomethyl)cyclohexyl]carbonyl}-4-[6-(4-methylpiperazin-1-yl)pyridin-3-yl]-N-[4-(1H-tetrazol-5-yl)phenyl]-L-phenylalaninamide hydrochloride], the IC50 (human factor XIa) was 7.2 nM and the “aPTT” value (human and animal plasma) was 0.21 µmol/L.

In the case of `Cc1nc(N)ncc1-c1ccc(C[C@H](NC(=O)C2CCC(CN)CC2)C(=O)Nc2ccc(-c3nnn[nH]3)cc2)cc1` (stereo partly drawn) [Example 55, N-alpha-{[trans-4-(Aminomethyl)cyclohexyl]carbonyl}-4-(2-amino-4-methylpyrimidin-5-yl)-N-[4-(1H-tetrazol-5-yl)phenyl]-L-phenylalaninamide hydrochloride], the IC50 (human factor XIa) is reported as 3 nM and the “aPTT” value (human and animal plasma) is reported as 0.22 µmol/L.

`CN(C)CCCOc1ccc(-c2ccc(C[C@H](NC(=O)C3CCC(CN)CC3)C(=O)Nc3ccc(-c4nnc(Cl)[nH]4)cc3)cc2)cn1` (stereo partly drawn) [Example 56, N-alpha-{[trans-4-(Aminomethyl)cyclohexyl]carbonyl}-N-[4-(3-chloro-4H-1,2,4-triazol-5-yl)phenyl]-4-{6-[3-(dimethylamino)propoxy]pyridin-3-yl}-L-phenylalaninamide hydrochloride] was tested, and the IC50 (human factor XIa) was 9.6 nM and the “aPTT” value (human and animal plasma) was 0.25 µmol/L.

For `Cc1ccncc1-c1ccc(C[C@H](NC(=O)C2CCC(CN)CC2)C(=O)Nc2ccc(-c3nn[nH]n3)cc2)cc1` (stereo partly drawn) [Example 57, N-alpha-{[trans-4-(Aminomethyl)cyclohexyl]carbonyl}-4-(4-methylpyridin-3-yl)-N-[4-(2H-tetrazol-5-yl)phenyl]-L-phenylalaninamide hydrochloride], the IC50 (human factor XIa) was 4.4 nM and the “aPTT” value (human and animal plasma) was 0.35 µmol/L.
